Source: article PMC9594047, “Identification of the Allosteric Binding Site for Thiazolopyrimidine on the C-Type Lectin Langerin” (ACS Chemical Biology, 2022)
Numbering of substitutions follows the chain as printed. Where a SMILES comes first, the peptide text is derived from it.

Key:
[1] = target: T1, murine Langerin (mLang) CRD wild type (Mus musculus, UniProt Q8VBX4); assay: 1H-15N HSQC NMR titration, mLang CRD wild type; type: binding; conditions: from CSP trajectories, 298 K; for 15N HSQC KD mLang (Murine-WT): pH 6; for Kd: pH 6, read-out: 15N HSQC KD mLang (Murine-WT)
T1 construct: 194 - 331, were cloned from a codon-optimized Langerin gene; His-tag (N); made in house; host or cells: E. coli BL21
T1 sequence (Q8VBX4 194-331): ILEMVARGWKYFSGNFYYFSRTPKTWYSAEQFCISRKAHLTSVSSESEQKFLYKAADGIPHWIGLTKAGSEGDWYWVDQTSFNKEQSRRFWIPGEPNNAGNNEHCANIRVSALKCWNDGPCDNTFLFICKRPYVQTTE
Description: (§1) Protein expression and purification hLang and mLang CRD wild type and all the mutants, ranging from amino acids 193 - 328 and 194 - 331, were cloned from a codon-optimized Langerin gene for bacterial expression (GenScript, Piscataway, NJ, USA) into a pET-28a vector (GenScript, Piscataway, NJ, USA) carrying an N-terminal His-tag and a T7 promoter. All constructs were expressed in E. coli BL21 (ThermoFisher Scientific, Waltham, MA, USA) in LB medium or in M9 medium at 37 °C. Protein expression was induced by adding 1 mM IPTG (isopropyl β-D-1-thiogalactopyranoside) at an OD600 between 0.7 - 1 and were grown overnight at 37 °C. Bacteria were harvested by centrifugation at 4000 g for 30 mins. Cells were lysed in lysis buffer (50 mM Tris, 150 mM NaCl, 10 mM MgCl2, 0.1% Tween-20, pH 8) with 1 mg/mL lysozyme (Sigma Aldrich, St. Louis, MO, USA) and 100 μg/mL DNase I (Applichem, Darmstadt, Germany) for at least 3 h at room temperature or 4 °C overnight or sonicated 1 h with amplitude 55%. Inclusion bodies were harvested by centrifugation at 15000 g […]
(§2) Inclusion bodies were washed twice with lysis buffer and ultrapure water to remove cell debris and soluble proteins. Then inclusion bodies were denatured with 20 mL of denaturation buffer (6 M guanidinium hydrochloride in 100 mM Tris (pH 8)) with 0.01% β -mercaptoethanol for at least 1 h at 37 °C, shaking at 220 rpm. The supernatant was slowly diluted 1:10 with CTL refolding buffer (0.4 M L-arginine in 50 mM Tris, 20 mM NaCl, 0.8 mM KCl, pH 8.3) with 1 mM reduced glutathione (GSH) and 0.1 mM oxidized glutathion e (GSSG) while stirring at 4 °C for at least 48 h after centrifugation (15,000 x g, 90 min, 4 °C). The refolded protein solution was dialyzed against 5 L TBS buffer (50 mM Tris, 150 mM NaCl, 5 mM CaCl 2) and then centrifuged to remove precipitated protein (15,000 x g, 90 min, 4 °C). The supernatant was purified by Ni -NTA agarose […]
(§3) affinity chromatography (Thermo Fisher) and the fractions of the elution were pooled and dialyzed against MES buffer (25 mM MES, 40 mM NaCl, 5 mM CaCl2, pH 6). Precipitated protein was removed by centrifugation (15,000 x g, 90 min, 4 °C) and the supernatant was used for experiments. We then concentrated protein with 5 - 6 mg/mL as the final concentration.
(§4) 1H-15N HSQC NMR measurements and backbone resonance assignment
(§5) NMR assignment and 15N-HSQC NMR for CSP plot and KD calculations were performed on a 700 MHz Bruker Advance III spectrometer (Bruker, Billerica, MA, USA) equipped with a PRODIGY probe. For mLang CRD backbone assignment, we performed a series of standard triple resonance experiments HNCA, HNCACB, HN(CO)CA and HN(CO)CACB as Hanske et al. described.1 Data was analyzed by using CcpNmr 2.5.1.2 In total, 88% of the residues were unambiguously assigned.
(§6) Most of the unassigned residues are prolines or residues in the mobile loops near the CBS, as reported for similar protein for example human Langerin.1 For the sample preparation, we used 300 µM 15N and 13C labeled protein, which is in 25 mM MES, 40 mM NaCl, 5 mM CaCl2, pH 6 containing 100 μM DSS, 0.05% NaN3, and 10% D2O buffer. 1H–15N HSQC NMR titrations experiments were performed with 100 μM of Langerin CRD containing 50 μM 4,4-dimethyl-4-silapentane-1-sulfonic acid (DSS) as an internal reference, and 10% D2O. 128 increments and 4 - 16 transients were recorded at 298 K, depending on the protein concentration and the machine implemented. NMR titration data were processed and analyzed, as previously done in Hanske et al. described (2016).1 The protein sample was added stepwise for titration of the thiazolopyrimidine derivatives or peptides until the most solubility tolerance was reached as the final concentration. Step size according to expected KD varied.

[2] = target: T2, human Langerin (hLang) CRD wild type (Homo sapiens, UniProt Q9UJ71); assay: 1H-15N HSQC NMR titration, hLang CRD wild type; type: binding; conditions: for 15N HSQC KD hLang (Human-WT) / Kd: hLang CRD wild type, from CSP trajectories, 298 K, pH 6; for Kd: read-out: 15N HSQC KD hLang (Human-WT)
T2 construct: ranging from amino acids 193 - 328 and; His-tag (N); made in house; host or cells: E. coli BL21
Description: as §1, §2, §3, §4, §5, §6

[3] = target: T3, mLang S263M-Y268S (Mus musculus, UniProt Q8VBX4, S263M/Y268S); assay: 1H-15N HSQC NMR titration, mLang CRD double mutant; type: binding, murine; conditions: for Kd: mLang CRD S263M-Y268S mutant, read-out: 15N HSQC KD Murine-S263M-Y268S
T3 construct: 194 - 331, were cloned from a codon-optimized Langerin gene; His-tag (N); made in house; host or cells: E. coli BL21
T3 sequence (Q8VBX4 194-331 S263M/Y268S): T1 sequence (Q8VBX4 194-331) with S70M, Y75S
Description: as §1
Inclusion bodies were washed twice with lysis buffer and ultrapure water to remove cell debris and soluble proteins. Then inclusion bodies were denatured with 20 mL of denaturation buffer (6 M guanidinium hydrochloride in 100 mM Tris (pH 8)) with 0.01% β -mercaptoethanol for at least 1 h at 37 °C, shaking at 220 rpm. […]
as §5
as §6, with “1H–15N HSQC NMR titrations experiments were performed with 100 μM of Langerin CRD containing 50 μM 4,4-dimethyl-4-silapentane-1-sulfonic acid (DSS) as an internal reference, and 10% D2O.” left out, “Step size according to expected KD varied.” left out

[4] = target: T4, hLang M260S-S265Y (Homo sapiens, UniProt Q9UJ71, M260S/S265Y); assay: 1H-15N HSQC NMR titration, hLang CRD double mutant; type: binding; conditions: for Kd: hLang CRD M260S-S265Y mutant
T4 construct: ranging from amino acids 193 - 328 and; His-tag (N); made in house; host or cells: E. coli BL21
Description: as §1
Inclusion bodies were washed twice with lysis buffer and ultrapure water to remove cell debris and soluble proteins. […]
as §5
Most of the unassigned residues are prolines or residues in the mobile loops near the CBS, as reported for similar protein for example human Langerin.1 For the sample preparation, we used 300 µM 15N and 13C labeled protein, which is in 25 mM MES, 40 mM NaCl, 5 mM CaCl2, pH 6 containing 100 μM DSS, 0.05% NaN3, and 10% D2O buffer. […] 128 increments and 4 - 16 transients were recorded at 298 K, depending on the protein concentration and the machine implemented. […]

T4 sequence (Q9UJ71 193-328 M260S/S265Y): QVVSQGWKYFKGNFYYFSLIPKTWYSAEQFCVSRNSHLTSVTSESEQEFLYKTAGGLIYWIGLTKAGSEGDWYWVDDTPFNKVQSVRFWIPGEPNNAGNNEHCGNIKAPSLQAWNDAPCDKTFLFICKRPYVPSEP
T2 sequence (Q9UJ71 193-328): as the sequence (Q9UJ71 193-328 M260S/S265Y) above, with S68M, Y73S counted along it

Row | Compound | 15N HSQC KD mLang (Murine-WT) [1] | Kd [1] [µM] | 15N HSQC KD hLang (Human-WT) [2] | Kd [2] [µM] | other results
1 | O=C(NCc1ccc2c(c1)OCO2)c1c(O)nc2sccn2c1=O [Compound 7] | micromolar affinity | 280 ± 160 | no detectable binding and nb | – | –
2 | Cc1csc2ncc(C(=O)O)c(=O)n12 [Compound 5] | micromolar affinity | 610 ± 110 | no detectable binding and nb | – | –
3 | C[C@H](N)C(=O)N[C@@H](Cc1c[nH]c2ccccc12)C(=O)N[C@@H](CO)C(=O)O [AWS] (H-Ala-Trp-Ser-OH) | – | 1600 ± 300 | – | 2400 ± 940 | –
4 | O=C(O)c1cnc2sccn2c1=O [Compound 1] | – | 1800 ± 600 | – | 130 ± 40 | Kd [3]: 480 ± 340 µM; fold increase in affinity for mLang S263M-Y268S compared to WT ([3]; mutant vs WT): 3 fold; fold higher affinity for hLang compared to mLang ([2]; hLang vs mLang wild type): more than 10 fold; Kd [4]: 340 ± 220 µM; fold decrease in affinity to hLang M260S-S265Y compared to WT ([4]; mutant vs WT): 3 fold
5 | COc1cc2c(cc1OC)CC(NC(=O)c1cnc3sccn3c1=O)C2 [Compound 6] | micromolar affinity | 230 ± 60 | no detectable binding and nb | – | –
6 | Cc1sc2ncc(C(=O)O)c(=O)n2c1C [Compound 4] | – | 400 ± 140 | – | 900 ± 300 | –
7 | O=C(NCCc1cn2c(n1)SCC2)c1cnc2sccn2c1=O [Compound 3] | – | 1140 ± 60 | – | 110 ± 40 | –
8 | COc1ccccc1CNC(=O)c1cnc2sccn2c1=O [Compound 2] | micromolar affinity | 160 ± 60 | not detectable and no detectable binding and nb | – | Kd [3]: 1740 ± 160 µM; fold decrease in binding affinity to mLang S263M-Y268S compared to WT ([3]; mutant vs WT): 10 fold; Kd [4]: 450 ± 280 µM
9 | C[C@H](NC(=O)[C@@H](N)CO)C(=O)N[C@@H](Cc1c[nH]c2ccccc12)C(=O)N[C@@H](CO)C(=O)O [SAWS] (H-SAWS-OH) | high-micromolar affinity | 670 ± 230 | high-micromolar affinity | 820 ± 130 | –
10 | N[C@@H](CO)C(=O)N[C@@H](CO)C(=O)N[C@@H](Cc1c[nH]c2ccccc12)C(=O)N[C@@H](CO)C(=O)O [SSWS] (H-SSWS-OH) | – | 460 ± 30 | – | – | –
